# Data published in patent US20230064254A1, “THERAPEUTIC AGENT CONTAINING FUSED PYRIMIDINE COMPOUND AS ACTIVE INGREDIENT” (TAIHO PHARMACEUTICAL CO., LTD., priority 2019, published 2023).
# Columns and labels:
# HIGA mice = assay: Inhibition of decrease in renal function in IgA nephropathy mouse models (HIGA mice), blood urea nitrogen; format: in vivo; settings: for blood urea nitrogen level (BUN), compared with the vehicle group: 10 mpk orally once a day for 6 weeks, FIG. 3, 10 mg/kg
# Procedure: The present test was carried out, using HIGA mice that had been reported as mouse models of IgA nephropathy (Muso et al., Kidney International 1996 50: 1946-1957). A vehicle, a fumarate of Compound 1, or Ibrutinib (Comparative Example 1) was orally administered to 14-week-old to 16-week-old HIGA mice (Japan SLC, Inc.) once a day, continuously for 6 weeks. The control mice were not IgA nephropathy mouse models (HIGA mice), but were Balb/c mice (Japan SLC, Inc.) with the same age in weeks as described above. The vehicle was 0.5% HPMC. The daily doses were set as the following: the vehicle: 10 ml/kg, the fumarate of Compound 1: 10 mpk, and Ibrutinib: 30 mpk. […] Peripheral blood was collected from […], and the urea nitrogen level in the blood was measured. Using UREA NITROGEN (BUN) Colorimetric Detection Kit (Arbor Assays), the urea nitrogen level in the blood was measured.
# [1] = AUC comparison of fumarate of Compound 1 and Ibrutinib; format: in vivo; settings: fumarate of Compound 1 (1 mpk) compared with Ibrutinib (3 mpk)
# mouse B cells = assay: Effect of inhibiting IgG production in mouse B cells; format: cell-based; settings: CD43-negative B cells from BALB/c mouse spleen, anti-CD40 antibody and IL-4 stimulation, cultured 8 days, ELISA; FIG. 1
# Procedure: The present test was carried out with reference to the Non-Patent literature (Castigli et al., J Allergy Clin Immunol 2007 120(4): 885-91). A CD43-negative B cell fraction was separated from the spleen collected from BALB/c mice, and was then suspended in a 10% FBS-containing RPMI1640 culture medium, to which an anti-CD40 antibody and IL-4 had been added. A fumarate of Compound 1 was serially diluted with DMSO, and was then added to a plate, at the same time as the seeding of the cells onto the plate. A 10% FBS-containing RPMI culture medium, to which neither an anti-CD40 antibody nor IL-4 had been added, was used as a control. DMSO, which was added to a plate at the same time as the seeding of the cells on the plate, was defined as a vehicle. The cells were cultured for 8 days at 37° C. in a CO2 incubator, and thereafter, a culture supernatant was recovered. Using an anti-IgG antibody ELISA kit (Thermo Fisher Scientific), the IgG concentration in the culture supernatant was measured.
# [2] = system: Human monocytic cells THP-1; assay: Inhibition of TNFα cytokine production by IgG stimulation; format: cell-based; settings: THP-1 cells on solid-phased human IgG, cultured 4 hours, ELISA; FIG. 2
# Procedure: The present test was carried out with reference to the Non-Patent literature (Chang et al., Arthritis Res Ther 2011 13(4): R115). Human monocytic cells THP-1 suspended in a 10% FBS-containing RPMI1640 culture medium were seeded on a 96-well plate, on which human IgG had been solid-phased. A fumarate of Compound 1 was serially diluted with DMSO, and was then added to the plate, on which the cells had been seeded. The cells seeded into a well of the plate, in which IgG had not been solid-phased, were used as a control. DMSO, which was added to the plate at the same time as the seeding of the cells, was defined as a vehicle. The cells were cultured for 4 hours at 37° C. in a CO2 incubator, and thereafter, a culture supernatant was recovered. Using an anti-TNFα ELISA kit (R & D system), the concentration of TNFα in the culture supernatant was measured.
SMILES,"blood urea nitrogen level (BUN), compared with the vehicle group (HIGA mice)","blood urea nitrogen level (BUN), compared with Comparative Example 1 (Ibrutinib) (HIGA mice; fumarate of Compound 1 10 mpk vs Ibrutinib 30 mpk, orally once a day for 6 weeks, FIG. 3)",AUC values [1],IgG concentration in the culture supernatant (IgG production) (mouse B cells),concentration of TNFα in the culture supernatant (TNFα production) [2],"medicinal effects in HIGA mice (blood urea nitrogen level) (HIGA mice; orally once a day for 6 weeks, fumarate of Compound 1 10 mpk, Ibrutinib 30 mpk)"
"C=CC(=O)N1CCC[C@@H](n2nc(C(=O)Nc3nc4ccccc4o3)c3c(N)ncnc32)C1 [fumarate of Compound 1, (R)-1-(1-acryloylpiperidin-3-yl)-4-amino-N-(benzo[d]oxazol-2-yl)-1H-pyrazolo[3,4-d]pyrimidine-3-carboxamide]",inhibits an increase in the blood urea nitrogen level,significantly reduces the blood urea nitrogen level,equivalent AUC values,,,
"C=CC(=O)N1CCC[C@@H](n2nc(C(=O)Nc3nc4ccccc4o3)c3c(N)ncnc32)C1 [Compound 1, (R)-1-(1-acryloylpiperidin-3-yl)-4-amino-N-(benzo[d]oxazol-2-yl)-1H-pyrazolo[3,4-d]pyrimidine-3-carboxamide]",significantly reduce the blood urea nitrogen level (BUN),,,inhibited IgG production in a dose-dependent manner,inhibited TNFα production in a dose-dependent manner,exhibited excellent medicinal effects
"C=CC(=O)N1CCC[C@@H](n2nc(-c3ccc(Oc4ccccc4)cc3)c3c(N)ncnc32)C1 [Ibrutinib, reference compound]",,,equivalent AUC values,,,
